These results are taken from EP0532706B1, “REDUCTION OF CARDIOVASCULAR VESSEL OCCLUSIONS WITH ASCORBATE AND LIPOPROTEIN (a) BINDING INHIBITORS” (priority 1990, dated 1991).

Data set [1] in a line: in vivo. The class given is in vivo, guinea pig. The method, then: Blood was drawn by ear puncture from the anesthetized animals and collected into EDTA containing tubes at the beginning, after 10 days, and after 3 weeks, when the animals were sacrificed. Plasma was stored at -80°C until analyzed. Lp(a) was detected in the plasma of the guinea pigs by use of SDS-polyacrylamide gels according to Neville ((1971) J. Biol. Chem. 246:6328-6334) followed by Western blotting according to Beisiegel, et al. ((1982) J. Biol. Chem. 257:13150-13156). Forty »l of plasma and 20 mg of arterial wall homogenate were applied in delipidated form per lane of the gel. The immunodetection of apo(a) was performed using a polyclonal anti-human apo(a) antibody (Immuno, Vienna, Austria) followed by a rabbit anti-sheep antibody (Sigma) and the gold-conjugated goat anti-rabbit antibody with subsequent silver enhancement (Bio-Rad). The determinations of cholesterol and triglycerides were done at California Veterinary Diagnostics (Sacramento) using the enzyme assay of Boehringer Mannheim. The amount of plasma ascorbate was determined by the dinitrophenylhydrazine method according to Schaffer, et al. ((1955) J. Biol. Chem. 212:59).
To confirm the data obtained in Example 1, a second guinea pig experiment was conducted, using 33 male animals with a mean weight of 550 g and an approximate age of 5 months. One group of 8 animals served as a control and received 40 mg ascorbate/kg BW/d (group A). To induce hypoascorbemia 16 animals were fed 2 mg ascorbate/kg BW/d (group B). Group A and half of the animals of group B (progression sub-group) were sacrificed after 5 weeks as described above. Half of group B was kept for 2 more weeks, receiving daily intraperitoneal injection of 1.3 g Na-ascorbate/kg BW/d as a daily intra peritoneal injection with the intention to reduce the extent of atherosclerosis lesions. After this regression period these animals also were sacrificed.

In data set [2] the test system is atherosclerotic lesions. Kind of data set: Example 2: area of aortic atherosclerotic lesions in guinea pig groups. The class given is in vivo. From the text: At necropsy the animals were anesthetized with metophase and exsanguinated. The aorta, heart and various other organs were taken for biochemical and histological analysis. The aorta was excised, the adventitial fat carefully removed, and the vessel was opened longitudinally. Subsequently the aorta was placed on a dark metric paper and a color slide was taken. The picture was projected and thereby magnified by an approximate factor of 10. The circumference of the ascending aorta, the aortic arch and thoracic aorta, as well as the atherosclerotic lesions in this area, were marked and measured with a digitalized planimetry system. The degree of atherosclerosis was expressed by the ratio of plaque area in relation to the total aortic area defined.
To confirm the data obtained in Example 1, a second guinea pig experiment was conducted, using 33 male animals with a mean weight of 550 g and an approximate age of 5 months. One group of 8 animals served as a control and received 40 mg ascorbate/kg BW/d (group A). To induce hypoascorbemia 16 animals were fed 2 mg ascorbate/kg BW/d (group B). Group A and half of the animals of group B (progression sub-group) were sacrificed after 5 weeks as described above. […]

Where [3] appears, read: Regression (after Scurvy): 2 more weeks with daily intraperitoneal 1.3 g Na-ascorbate/kg BW/d.
[4] abbreviates: Scurvy (progress), group B: 2 mg ascorbate/kg BW/d, 5 weeks.

Regarding `O=C1O[C@H]([C@@H](O)CO)C(O)=C1O` [Na-ascorbate], the “Plasma Cholesterol” value in data set [1] (setting [3]) was 33 mg/dL. In data set [1] (guinea pig, in vivo, ip, 1300 mg/kg/day), this compound yielded a concentration at 336 h of 20600 ng/mL. The “Atheroscl. Lesion (Percent of Aorta Thorac. Surface)” value in data set [2] (setting [3]) was 19% of Aorta Thorac. Surface.

As to `O=C1O[C@H]([C@@H](O)CO)C(O)=C1O` [ascorbate], the “Plasma Cholesterol” value came to 39 mg/dL in data set [1] (Control, group A: 40 mg ascorbate/kg BW/d, 5 weeks) and 54 mg/dL in data set [1] (setting [4]). Besides, the concentration at 840 h is 3010 ng/mL in data set [1] (guinea pig, in vivo, 2 mg/kg/day) and 5030 ng/mL in data set [1] (guinea pig, in vivo, 40 mg/kg/day). For the same compound, the “Atheroscl. Lesion (Percent of Aorta Thorac. Surface)” value in data set [2] (setting [4]) is 25% of Aorta Thorac. Surface.
